The values below come from patent US20100226991A1, “SOLID INORGANIC/ORGANIC HYBRID WITH MODIFIED SURFACE” (CENTRE NATIONAL DE LA RECHERCHE SCIENTIFIQUE - CNRS-, priority 2007, published 2010).

Series [1] can be described thus: Solubility of busulfan in various solvents. In kind it is physicochemical. From the text:
The solvents chosen for the impregnation are those in which busulfan has appreciable solubility (acetone, acetonitrile, chloroform, dichloromethane, dimethyl carbonate) (Table 18).

The test system of the next series is rats. To be noted: cited from earlier work.
Another series relates to Female Wistar rats. As to conditions: rat, in vivo. The protocol: The animals used for the experiment are […] female Wistar rats weighing 161.36±16.1 g.
All the tests were performed in the animal house of the University Pharmacy school under temperature and humidity conditions, and after 3 days of adapting the animals to the animal house (3 days).
For the acute toxicity tests, a single intrajugular injection of the materials MIL-88A (150 and 500 nm), MIL-88Bt (50 and 140 nm) or 5% glucose (control group) is performed on 4 groups (at 1 day, 1 week, 1 month and 3 months, respectively) of 8 rats chosen at random and anesthetized with isoflurane.
The change in weight and the behavior of the animals were monitored. […]
Moreover, each group of animals was sacrificed after 1 day, 1 week, 1 and 3 months, respectively. The animals were anesthetized with isoflurane and the spleen, kidneys, liver and heart were then removed and stored for histological studies. Four livers were also used to perform a microsomal extraction in order to measure the activation of cytochrome P450. […]

The subject of a further series is Cytochrome P450. Set-up: species or system Wistar rats. To be noted: rat, in vivo. The source says: Moreover, each group of animals was sacrificed after 1 day, 1 week, 1 and 3 months, respectively. The animals were anesthetized with isoflurane and the spleen, kidneys, liver and heart were then removed and stored for histological studies. Four livers were also used to perform a microsomal extraction in order to measure the activation of cytochrome P450.
Cytochrome P450 is an enzyme associated with the […] of the smooth endoplasmic reticulum, which is highly involved in the degradation of exogenous molecules. This enzyme has very low substrate specificity and is capable of catalyzing the transformation of newly synthesized compounds such as medicaments. The majority of the P450 cytochromes can be induced or repressed, at the transcriptional level, by various xenobiotics; this is often the cause of side effects of medicaments. Assaying this enzyme makes it possible to determine whether the MOF material used is metabolized by cytochrome P450, in which case it will activate or inhibit its activity.
The amount of cytochrome can be interpreted only on condition that it has been related to the total amount of protein contained in each sample. Assay of the protein contained in the sample was performed by means of a BCA kit supplied by Pierce (batch #HI106096). […]

The conditions of series [2]: 20° C.; cited from earlier work.

Converted amounts (≈) assume the structure as drawn.

The term solubility denotes the dissolved amount per volume that the medium holds. As for `CS(=O)(=O)OCCCCOS(C)(=O)=O` [busulfan, 1,4-butanediol dimethylsulfonate], the solubility is 20000 µg/mL in series [1] (acetone, organic solvent or mixture); 30000 µg/mL in series [1] (acetonitrile, organic solvent or mixture); 8000 µg/mL in series [1] (chloroform, organic solvent or mixture); 10000 µg/mL in series [1] (dichloromethane, organic solvent or mixture); 13000 µg/mL in series [1] (dimethyl carbonate, organic solvent or mixture); less than 4000 µg/mL in series [1] (ethanol, organic solvent or mixture). Also, the solubility in series [1] (ether, organic solvent or mixture) is less than 4000 µg/mL; in series [1] (ethyl acetate, organic solvent or mixture) it was 6600 µg/mL; in series [1] (hexane, organic solvent or mixture), less than 4000 µg/mL; in series [1] (methanol, organic solvent or mixture) it was less than 4000 µg/mL; in series [1] (tetrahydrofuran, organic solvent or mixture), roughly 5000 µg/mL; in series [1] (toluene, organic solvent or mixture), roughly 4000 µg/mL. In series [1] (water), the solubility was 100 µg/mL.
As for `[Cl][Zr]([Cl])([Cl])[Cl]` [ZrCl4], the “oral lethal dose 50 (LD50)” value with rats was 1700 mg/kg.
Regarding Fe3O[O2C—C2H2—CO2]3.X.nH2O [MIL-88A], in the series with Female Wistar rats, the liver weight result was “returns to normal for MIL-88A after 3 months”, the seric iron entry is on record as “recovered a seric iron concentration comparable to that of the control group”, the “signs of severe toxicity” value was “do not induce any sign of severe toxicity” and the “weight change of the animals” value is listed as “does not produce a significant variation in weight over time”. In the series on Cytochrome P450, the “metabolism by cytochrome P450 (cytochrome activity vs glucose control)” value was “not metabolized by Cyp450”.
Turning to `COc1cc(O)c(C(=O)c2ccccc2)cc1S(=O)(=O)O` [Benzophenone-4, 2-hydroxy-4-methoxybenzophenone-5-sulfonic acid], in series [2], the solubility in water was 100000 µg/mL (≈ 324 mM).
Consider `COc1ccc(C(=O)c2ccccc2)c(O)c1` [Benzophenone-3, 2-hydroxy-4-methoxybenzophenone], for which the solubility in water in series [2] is 3.7 µg/mL (≈ 0.0162 mM).
As to “Fe3O[O2C—C6(CH3)4—CO2]3.OH.nH2O [MIL-88Bt]”, in the series on Female Wistar rats, the liver weight entry is reported as “the weight remains high”, the seric iron entry is “recovered a seric iron concentration comparable to that of the control group”, the “signs of severe toxicity” value was “do not induce any sign of severe toxicity” and the “weight change of the animals” value is recorded as “does not produce a significant variation in weight over time”. Besides, in the series with Cytochrome P450, the “metabolism by cytochrome P450 (cytochrome activity vs glucose control)” value was “does not appear to be metabolized by Cyp450”.
